Laboratory results as given in patent US4160829A, “Antibacterial 1,2,4-oxadiazolylacetamido cephalosporins” (Gist-Brocades N.V., priority 1972, dated 1979).
Values after ≈ are worked out from the molar mass of the structure shown. Read-outs that look alike come from different tables or passages of the source.

Assays:
Staph.aureus A 321 = experiment: agar serial dilution test; type: cell-based, Staphylococcus aureus; settings: Staphylococcus aureus, A321, 24 h, agar serial dilution, 24 hours, 37° C.; read-out: minimal inhibitory concentration (MIC)
Esch.coli U 20 = experiment: agar serial dilution test; type: cell-based, Escherichia coli; settings: Escherichia coli
Prot.mirab. A 1200 = experiment: agar serial dilution test; type: cell-based, Proteus mirabilis; settings: agar serial dilution, 24 hours, 37° C.; for MIC: Proteus mirabilis, 24 h, read-out: minimal inhibitory concentration (MIC)
Kleb.pneum. A 809 = experiment: agar serial dilution test; type: cell-based, Klebsiella pneumoniae; settings: Klebsiella pneumoniae; agar serial dilution, 24 hours, 37° C.; read-out: minimal inhibitory concentration (MIC)
Salm.typh. R 127 = experiment: agar serial dilution test; type: cell-based; settings: 37° C.; for MIC: 24 h, read-out: minimal inhibitory concentration (MIC)
Staph.aureus A 355 [1] = experiment: agar serial dilution test; settings: Staphylococcus aureus, A355, 24 h, read-out: minimal inhibitory concentration (MIC), agar serial dilution, 24 hours, 37° C.; penicillinase-producing strain
Prot.rettg. A 821 = experiment: agar serial dilution test; type: cell-based, Proteus rettgeri; settings: Providencia rettgeri, 24 h, agar serial dilution, 24 hours, 37° C.; read-out: minimal inhibitory concentration (MIC)
Prot.mirab. L 93 = experiment: agar serial dilution test; type: cell-based, Proteus mirabilis; settings: Proteus mirabilis
Pseud.aerug. 2396 = experiment: agar serial dilution test; type: cell-based; settings: agar serial dilution, 24 hours, 37° C.; read-out: minimal inhibitory concentration (MIC)
[2] = tested on: Pseud.aerug. Wyeth A 1058; experiment: agar serial dilution test; type: cell-based; settings: agar serial dilution, 24 hours, 37° C.; read-out: minimal inhibitory concentration (MIC)
Bac.Subt.ATCC 6633 = experiment: agar serial dilution test; type: cell-based, Bacillus subtilis; settings: agar serial dilution, 24 hours, 37° C.; for MIC: Bacillus subtilis, ATCC6633, 24 h, read-out: minimal inhibitory concentration (MIC)
Shig.equir. T 3 = experiment: agar serial dilution test; type: cell-based; settings: 24 h, 37° C., read-out: minimal inhibitory concentration (MIC)
Prot.mirab. H 3 = experiment: agar serial dilution test; type: cell-based, Proteus mirabilis; settings: Proteus mirabilis; agar serial dilution, 24 hours, 37° C.; read-out: minimal inhibitory concentration (MIC)
Staph.aureus A 2000 [3] = experiment: agar serial dilution test; type: cell-based, Staphylococcus aureus; settings: Staphylococcus aureus, A2000, 24 h, agar serial dilution, 24 hours, 37° C.; read-out: minimal inhibitory concentration (MIC)
Dipl.pneum. L 54 = experiment: agar serial dilution test; type: cell-based, Diplococcus pneumoniae; settings: Streptococcus pneumoniae; agar serial dilution, 24 hours, 37° C.; read-out: minimal inhibitory concentration (MIC)
Prot.morg. 2241 = experiment: agar serial dilution test; type: cell-based; settings: 24 h, agar serial dilution, 24 hours, 37° C.; read-out: minimal inhibitory concentration (MIC)
Salm.dubl. P 43 = experiment: agar serial dilution test; type: cell-based, Salmonella dublin; settings: Salmonella enterica, read-out: minimal inhibitory concentration (MIC)
Staph.aureus A 355 [4] = experiment: micro serial dilution test; type: cell-based, Staphylococcus aureus; settings: Staphylococcus aureus, A355; micro serial dilution (in brackets), about 18 hours, 30° C. or 37° C.; penicillinase-producing strain; read-out: minimal inhibitory concentration (MIC)
Excerpt: Two drops of a stock solution of the test compound (antibiotic) in a known concentration were brought into the first hole of a test plate with 9 numbered holes with a sterile Pasteur pipette. After rinsing this pipette three times with a physiological NaCl-solution, two drops of a stock solution of the test organism in a culture medium were brought in all the holes except for hole 8. In the first hole, the solution of the tested compound had been half diluted, then by stirring the liquid in the first hole and adding two drops of this mixture to the second hole and so on until hole 8, dilutions of the test compound solution were obtained in geometrical progression. The hole 9 contained no antibiotic and served for checking the growth of the testogranism in a blank medium. The test plate was incubated at 30° C. or 37° C. for about 18 hours.
^1 Penicillinase-producing strain

Pseud.aerug. H 10 = experiment: agar serial dilution test; type: cell-based; settings: agar serial dilution, 24 hours, 37° C.; read-out: minimal inhibitory concentration (MIC)
Staph.aureus A 2000 [5] = experiment: micro serial dilution test; type: cell-based, Staphylococcus aureus; settings: Staphylococcus aureus, A2000, 18 h, micro serial dilution (in brackets), about 18 hours, 30° C. or 37° C.; read-out: minimal inhibitory concentration (MIC)
Haem.infl. A 1030 = experiment: micro serial dilution test; type: cell-based; settings: micro serial dilution (in brackets), about 18 hours, 30° C. or 37° C.; for MIC: 18 h, read-out: minimal inhibitory concentration (MIC)
Past.multo. A 723 = experiment: agar serial dilution test; type: cell-based, Pasteurella multocida; settings: Pasteurella multocida; agar serial dilution, 24 hours, 37° C.; read-out: minimal inhibitory concentration (MIC)
Strep. faec. L 80 = experiment: agar serial dilution test; type: cell-based, Streptococcus faecalis; settings: Enterococcus faecalis; agar serial dilution, 24 hours, 37° C.; read-out: minimal inhibitory concentration (MIC)
Staph.aureus A 2001 [6] = experiment: micro serial dilution test; type: cell-based, Staphylococcus aureus; settings: Staphylococcus aureus, A2001, 18 h, micro serial dilution (in brackets), about 18 hours, 30° C. or 37° C.; read-out: minimal inhibitory concentration (MIC)
Staph.aureus A 2001 [7] = experiment: agar serial dilution test; type: cell-based, Staphylococcus aureus; settings: Staphylococcus aureus, A2001, 24 h, agar serial dilution, 24 hours, 37° C.; read-out: minimal inhibitory concentration (MIC)
Strep.haem. A 266 = experiment: agar serial dilution test; type: cell-based, Streptococcus haemolyticus; settings: Streptococcus; agar serial dilution, 24 hours, 37° C.; read-out: minimal inhibitory concentration (MIC)
[8] = agar serial dilution, 24 hours, 37° C.
[9] = U20, agar serial dilution, 24 hours, 37° C., read-out: minimal inhibitory concentration (MIC)
[10] = agar serial dilution, 24 hours, 37° C., read-out: minimal inhibitory concentration (MIC)

Row | SMILES | MIC (Staph.aureus A 321) | MIC (Kleb.pneum. A 809) | MIC (Staph.aureus A 355 [1]) | MIC (Prot.rettg. A 821) | MIC (Pseud.aerug. 2396) | MIC [2] | MIC (Shig.equir. T 3) | MIC (Prot.mirab. H 3) | MIC (Staph.aureus A 2000 [3]) | MIC (Dipl.pneum. L 54) | MIC (Prot.morg. 2241) | MIC (Salm.dubl. P 43; [8]) | MIC (Staph.aureus A 355 [4]) | MIC (Pseud.aerug. H 10) | MIC (Staph.aureus A 2000 [5]) | MIC (Past.multo. A 723) | MIC (Strep. faec. L 80) | MIC (Staph.aureus A 2001 [6]) | MIC (Staph.aureus A 2001 [7]) | MIC (Esch.coli U 20; [9]) | other results
1 | CC(=O)OCC1=C(C(=O)O)N2C(=O)[C@@H](NC(=O)Cc3nc(C)no3)[C@H]2SC1 [Compound D, sodium-7-[(3-methyl-1,2,4-oxadiazol-5-yl)-acetamido]-3-acetoxymethyl-3-cephem-4-carboxylate] | 0.5 µg/mL | 3 µg/mL | 0.5 µg/mL | 1.5 µg/mL | > 100 µg/mL | > 100 µg/mL | 6 µg/mL | 25 µg/mL | 0.75 µg/mL | 0.75 µg/mL | > 100 µg/mL | 3 µg/mL | 0.6 µg/mL | > 100 µg/mL | 1 µg/mL | 1.5 µg/mL | 50 µg/mL | 0.6 µg/mL | 0.75 µg/mL | – | MIC (Esch.coli U 20; U20, 24 h, read-out: minimal inhibitory concentration (MIC), agar serial dilution, 24 hours, 37° C.): 12.5 µg/mL; minimal inhibitory concentration (MIC) (Prot.mirab. A 1200): 25 µg/mL; minimal inhibitory concentration (MIC) (Salm.typh. R 127; 24 hours): 12.5 µg/mL; MIC (Prot.mirab. L 93; 24 h, read-out: minimal inhibitory concentration (MIC), agar serial dilution, 24 hours, 37° C.): 12.5 µg/mL; minimal inhibitory concentration (MIC) (Bac.Subt.ATCC 6633): 0.12 µg/mL; minimal inhibitory concentration (MIC) (Haem.infl. A 1030): 30 µg/mL
2 | Cc1noc(CC(=O)N[C@@H]2C(=O)N3[C@@H]2SC(C)(C)[C@@H]3C(=O)O)n1 [Example 11B, sodium 6-[(3-methyl-1,2,4-oxadiazol-5-yl)-acetamido]-penicillanate H2 O] | 0.12 µg/mL | > 100 µg/mL | 50 µg/mL | 50 µg/mL | > 100 µg/mL | > 100 µg/mL | 3 µg/mL | 50 µg/mL | 50 µg/mL | 0.25 µg/mL | > 100 µg/mL | – | > 12 µg/mL | > 100 µg/mL | > 12 µg/mL | 1 µg/mL | 6 µg/mL | 2.5 µg/mL | 3 µg/mL | 50 µg/mL | MIC (Strep.haem. A 266): 0.03 µg/mL; MIC (Prot.mirab. A 1200): > 100 µg/mL; MIC (Salm.typh. R 127): 12.5 µg/mL; MIC (Prot.mirab. L 93; [10]): 3 µg/mL; MIC (Bac.Subt.ATCC 6633): 0.03 µg/mL; MIC (Salm.dubl. P 43; 24 h): 12.5 µg/mL; MIC (Haem.infl. A 1030): 125 µg/mL
3 | COC(=O)C(C(=O)N[C@@H]1C(=O)N2C(C(=O)O)=C(COC(C)=O)CS[C@H]12)c1nc(C)no1 (stereo partly drawn) [Example 38, 7-[3-methyl-α-carbomethoxy-1,2,4-oxadiazol-5-yl-acetamido]cephalosporanic acid] | 25 µg/mL (≈ 55 µM) | 50 µg/mL (≈ 110 µM) | 25 µg/mL (≈ 55 µM) | 25 µg/mL (≈ 55 µM) | > 100 µg/mL | > 100 µg/mL | 50 µg/mL (≈ 110 µM) | 100 µg/mL (≈ 220 µM) | 25 µg/mL (≈ 55 µM) | 12.5 µg/mL (≈ 27.5 µM) | > 100 µg/mL | 100 µg/mL (≈ 220 µM) | 23 µg/mL (≈ 50.6 µM) | > 100 µg/mL | 23 µg/mL (≈ 50.6 µM) | 12.5 µg/mL (≈ 27.5 µM) | > 100 µg/mL | 15 µg/mL (≈ 33 µM) | 25 µg/mL (≈ 55 µM) | > 100 µg/mL | MIC (Prot.mirab. A 1200): > 100 µg/mL; MIC (Salm.typh. R 127): 100 µg/mL (≈ 220 µM); MIC (Prot.mirab. L 93; [10]): 50 µg/mL (≈ 110 µM); MIC (Bac.Subt.ATCC 6633): 6 µg/mL (≈ 13.2 µM); MIC (Haem.infl. A 1030): 125 µg/mL (≈ 275 µM)
